# Reference: patent US9217014B2, “Antifungal agents and uses thereof” (Cidara Therapeutics, Inc., priority 2011, dated 2015)
# Where two headings read alike, the source gives them in different places.
# Test system: C. albicans R303
# Test: mouse candidiasis infection model, IP administration, kidney fungal burden
# Type: in vivo
# Conditions: for overall performance in reducing C. albicans CFUs in the kidneys of the mice: conclusion over all runs
# Procedure: The objective of these studies was to evaluate the efficacy of test compounds in the mouse candidiasis infection model. Amounts of test articles are uncorrected.
# The strain, C. albicans R303 was transferred from frozen storage onto Sabauroud dextrose agar (SDA) plates and grown for ˜24 hr at 35° C. The inoculum was prepared by transferring colonies from the plate to phosphate buffered saline (PBS) and the concentration adjusted to approximately 10^6 CFU/mL with the aid of a spectrophotometer. The stock was diluted 1:9 to prepare the inoculum. Prior to each run the concentration was verified using the dilution plate count method.
# Female CD-1 mice were used in this study. The animals were approximately seven-weeks-old at the start of the study and weighed about 15-30 g.
# Mice were made neutropenic with IP injections of cyclophosphamide (150 mg/kg in 10 mL/kg) at 4 and 1 day before inoculation. Each animal was inoculated with the appropriate concentration by injecting 0.1 mL of inoculum into a tail vein. The test compounds were administered IP at 2 hr after infection.
# In a typical procedure, the kidneys were collected from four mice in control group 1 (untreated) at 2 hr after infection, and from another four mice in control group 2 (untreated) at 24 hr after infection. Kidneys were removed aseptically from each mouse and were combined in a sterile tube. An aliquot (2 mL) of sterile PBS was added to each tube and the contents homogenized with a tissue homogenizer (Polytron 3100). Serial dilutions of the tissue homogenates were conducted and 0.1 mL aliquots were spread on SDA plates and the plates incubated at 35° C. overnight. The CFU/kidneys were determined from colony counts. Data were analyzed using one-way ANOVA with either the Tukey-Kramer Multiple Comparisons Test or Dunnett Test (GraphPad InStat version 3.06, GraphPad Software, San Diego, Calif.).
# The data reported below are the average of four mice. Each run included a separate control and each is tabulated separately.
# [1] = Candida albicans, R303, ip, 24 h, Fourth run, IP 0.5 mg/kg, read-out: Difference from 24-h control
# [2] = Candida albicans, R303, ip, 24 h, Fourth run, IP 1.5 mg/kg, read-out: Difference from 24-h control
# [3] = Fourth run, IP 0.5 mg/kg, kidneys 24 h after infection
# [4] = Fourth run, IP 1.5 mg/kg, kidneys 24 h after infection
# [5] = Candida albicans, R303, ip, 24 h, Second run, IP 0.5 mg/kg, read-out: Difference from 24-h control
# [6] = Candida albicans, R303, ip, 24 h, Second run, IP 1.5 mg/kg, read-out: Difference from 24-h control
# [7] = Candida albicans, R303, ip, 24 h, Second run, IP 4.5 mg/kg, read-out: Difference from 24-h control
# [8] = Second run, IP 0.5 mg/kg, kidneys 24 h after infection
# [9] = Second run, IP 1.5 mg/kg, kidneys 24 h after infection
# [10] = Second run, IP 4.5 mg/kg, kidneys 24 h after infection
# [11] = Candida albicans, R303, ip, 24 h, Third run, IP 0.5 mg/kg, read-out: Difference from 24-h control
# [12] = Candida albicans, R303, ip, 24 h, Third run, IP 1.5 mg/kg, read-out: Difference from 24-h control
# [13] = Candida albicans, R303, ip, 24 h, Third run, IP 4.5 mg/kg, read-out: Difference from 24-h control
# [14] = Third run, IP 0.5 mg/kg, kidneys 24 h after infection
# [15] = Third run, IP 1.5 mg/kg, kidneys 24 h after infection
# [16] = Third run, IP 4.5 mg/kg, kidneys 24 h after infection
Structure (SMILES),log reduction at 0.5 mg/kg [1],log reduction at 1.5 mg/kg [2],Mean log10 CFU/kidneys (±SEM) [3] [log10 CFU/kidneys],Mean log10 CFU/kidneys (±SEM) [4] [log10 CFU/kidneys],overall performance in reducing C. albicans CFUs in the kidneys of the mice,further results
CCCCCOc1ccc(-c2ccc(-c3ccc(C(=O)N[C@H]4C[C@@H](O)C(NCCOCCOC)NC(=O)C5[C@@H](O)[C@@H](C)CN5C(=O)C([C@@H](C)O)NC(=O)C([C@H](O)[C@@H](O)c5ccc(O)cc5)NC(=O)C5C[C@@H](O)CN5C(=O)C([C@@H](C)O)NC4=O)cc3)cc2)cc1 (some centres unmarked) [compound 9],0.07,1.02,5.04 ± 0.13,4.09 ± 0.23,performed poorly,–
CCCCCOc1ccc(-c2ccc(-c3ccc(C(=O)N[C@H]4C[C@@H](O)C(NCCOC)NC(=O)C5[C@@H](O)[C@@H](C)CN5C(=O)C([C@@H](C)O)NC(=O)C([C@H](O)[C@@H](O)c5ccc(O)cc5)NC(=O)C5C[C@@H](O)CN5C(=O)C([C@@H](C)O)NC4=O)cc3)cc2)cc1 (some centres unmarked) [compound 8],0.32,1.66,4.78 ± 0.15,3.45 ± 0.37,performed poorly,–
CCCCCOc1ccc(-c2ccc(-c3ccc(C(=O)N[C@H]4C[C@@H](O)C(NCCN)NC(=O)C5[C@@H](O)[C@@H](C)CN5C(=O)C([C@@H](C)O)NC(=O)C([C@H](O)[C@@H](O)c5ccc(O)cc5)NC(=O)C5C[C@@H](O)CC5C(=O)C([C@@H](C)O)NC4=O)cc3)cc2)cc1 (some centres unmarked) [compound 15],3.01,3.81,2.09 ± 0.16,1.29 ± 0.18,performed strongly,log reduction at 0.5 mg/kg [5]: 3.63; log reduction at 1.5 mg/kg [6]: 3.91; log reduction at 4.5 mg/kg [7]: 4.15; Mean log10 CFU/kidneys (±SEM) [8]: 1.25 ± 0.45 log10 CFU/kidneys; Mean log10 CFU/kidneys (±SEM) [9]: 0.96 ± 0.57 log10 CFU/kidneys; Mean log10 CFU/kidneys (±SEM) [10]: 0.73 ± 0.42 log10 CFU/kidneys
CCCCCOc1ccc(-c2ccc(-c3ccc(C(=O)N[C@H]4C[C@@H](O)C(OCCNC)NC(=O)C5[C@@H](O)[C@@H](C)CN5C(=O)C([C@@H](C)O)NC(=O)C([C@H](O)[C@@H](O)c5ccc(O)cc5)NC(=O)C5C[C@@H](O)CN5C(=O)C([C@@H](C)O)NC4=O)cc3)cc2)cc1 (some centres unmarked) [compound 3],–,–,–,–,performed moderately,"log reduction at 5 mg/kg (Candida albicans, R303, ip, 24 h, First run, IP 5 mg/kg, read-out: Difference from 24-h control): 3.63; Mean log10 CFU/kidneys (±SD) (First run, IP 5 mg/kg, neutropenic mice, kidneys 24 h after infection): 1.57 ± 0.20 log10 CFU/kidneys"
CCCCCOc1ccc(-c2ccc(-c3ccc(C(=O)N[C@H]4C[C@@H](O)C(NCCOCCN)NC(=O)C5[C@@H](O)[C@@H](C)CN5C(=O)C([C@@H](C)O)NC(=O)C([C@H](O)[C@@H](O)c5ccc(O)cc5)NC(=O)C5C[C@@H](O)CC5C(=O)C([C@@H](C)O)NC4=O)cc3)cc2)cc1 (some centres unmarked) [compound 12],1.9,3.5,3.20 ± 0.11,1.60 ± 0.09,performed strongly,–
"CC[C@H](C)C[C@H](C)CCCCCCCCC(=O)N[C@H]1C[C@@H](O)[C@@H](NCCN)NC(=O)[C@@H]2[C@@H](O)CCN2C(=O)[C@H]([C@H](O)CCN)NC(=O)[C@H]([C@H](O)[C@@H](O)c2ccc(O)cc2)NC(=O)[C@@H]2C[C@@H](O)CN2C(=O)[C@H]([C@@H](C)O)NC1=O [caspofungin, reference compound]",–,–,–,–,–,log reduction at 0.5 mg/kg [11]: 4.88; log reduction at 1.5 mg/kg [12]: 4.48; log reduction at 4.5 mg/kg [13]: 5.2; Mean log10 CFU/kidneys (±SEM) [14]: 0.33 ± 0.33 log10 CFU/kidneys; Mean log10 CFU/kidneys (±SEM) [15]: 0.73 ± 0.42 log10 CFU/kidneys; Mean log10 CFU/kidneys (±SEM) [16]: 0.00 ± 0.00 log10 CFU/kidneys
CCCCCOc1ccc(-c2ccc(-c3ccc(C(=O)N[C@H]4C[C@@H](O)C(OCCOCC[N+](C)(C)C)NC(=O)C5[C@@H](O)[C@@H](C)CN5C(=O)C([C@@H](C)O)NC(=O)C([C@H](O)[C@@H](O)c5ccc(O)cc5)NC(=O)C5C[C@@H](O)CN5C(=O)C([C@@H](C)O)NC4=O)cc3)cc2)cc1 (some centres unmarked) [compound 6],–,–,–,–,performed strongly,log reduction at 0.5 mg/kg [5]: 0.13; log reduction at 1.5 mg/kg [6]: 3.27; log reduction at 4.5 mg/kg [7]: 4.87; Mean log10 CFU/kidneys (±SEM) [8]: 4.75 ± 0.19 log10 CFU/kidneys; Mean log10 CFU/kidneys (±SEM) [9]: 1.60 ± 0.17 log10 CFU/kidneys; Mean log10 CFU/kidneys (±SEM) [10]: 0.00 ± 0.00 log10 CFU/kidneys
CCC(C)CC(C)CCCCCCCCC(=O)N[C@H]1C[C@@H](O)C(NCCNCCO)NC(=O)C2[C@@H](O)CCN2C(=O)C([C@H](O)CCN)NC(=O)C([C@H](O)[C@@H](O)c2ccc(O)cc2)NC(=O)C2C[C@@H](O)CC2C(=O)C([C@@H](C)O)NC1=O (some centres unmarked) [compound 21],–,–,–,–,performed strongly,log reduction at 0.5 mg/kg [11]: 3.63; log reduction at 1.5 mg/kg [12]: 4.48; log reduction at 4.5 mg/kg [13]: 4.03; Mean log10 CFU/kidneys (±SEM) [14]: 1.57 ± 0.16 log10 CFU/kidneys; Mean log10 CFU/kidneys (±SEM) [15]: 0.73 ± 0.42 log10 CFU/kidneys; Mean log10 CFU/kidneys (±SEM) [16]: 1.17 ± 0.40 log10 CFU/kidneys
CCC(C)CC(C)CCCCCCCCC(=O)N[C@H]1C[C@@H](O)C(NCCNCCN)NC(=O)C2[C@@H](O)CCN2C(=O)C([C@H](O)CCN)NC(=O)C([C@H](O)[C@@H](O)c2ccc(O)cc2)NC(=O)C2C[C@@H](O)CC2C(=O)C([C@@H](C)O)NC1=O (some centres unmarked) [compound 22],–,–,–,–,performed strongly,log reduction at 0.5 mg/kg [11]: 3.56; log reduction at 1.5 mg/kg [12]: 5.2; log reduction at 4.5 mg/kg [13]: 4.55; Mean log10 CFU/kidneys (±SEM) [14]: 1.65 ± 0.16 log10 CFU/kidneys; Mean log10 CFU/kidneys (±SEM) [15]: 0.00 ± 0.00 log10 CFU/kidneys; Mean log10 CFU/kidneys (±SEM) [16]: 0.65 ± 0.38 log10 CFU/kidneys
CCCCCOc1ccc(-c2ccc(-c3ccc(C(=O)N[C@H]4C[C@@H](O)C(NCCOCCOCCN)NC(=O)C5[C@@H](O)[C@@H](C)CN5C(=O)C([C@@H](C)O)NC(=O)C([C@H](O)[C@@H](O)c5ccc(O)cc5)NC(=O)C5C[C@@H](O)CC5C(=O)C([C@@H](C)O)NC4=O)cc3)cc2)cc1 (some centres unmarked) [compound 13],2.29,2.8,2.81 ± 0.23,2.31 ± 0.19,performed moderately,–
CCCCCOc1ccc(-c2ccc(-c3ccc(C(=O)N[C@H]4C[C@@H](O)C(NCCNCCN)NC(=O)C5[C@@H](O)[C@@H](C)CN5C(=O)C([C@@H](C)O)NC(=O)C([C@H](O)[C@@H](O)c5ccc(O)cc5)NC(=O)C5C[C@@H](O)CC5C(=O)C([C@@H](C)O)NC4=O)cc3)cc2)cc1 (some centres unmarked) [compound 17],1.64,3.91,3.46 ± 0.06,1.19 ± 0.12,performed strongly,–
CCCCCOc1ccc(-c2ccc(-c3ccc(C(=O)N[C@H]4C[C@@H](O)C(NCCOCCOCCOCCN)NC(=O)C5[C@@H](O)[C@@H](C)CN5C(=O)C([C@@H](C)O)NC(=O)C([C@H](O)[C@@H](O)c5ccc(O)cc5)NC(=O)C5C[C@@H](O)CC5C(=O)C([C@@H](C)O)NC4=O)cc3)cc2)cc1 (some centres unmarked) [compound 14],0.37,0.31,4.74 ± 0.17,4.80 ± 0.34,performed poorly,–
